{"source": "patent US12527773B2", "about": "“Flavi-block: a pan-flavivirus inhibitor” (Baden-Württemberg Stiftung GmbH, priority 2020, dated 2026)", "key": {"HCV-JC1-Luc": {"test_system": "HCV-JC1-Luc", "experiment": "Validation of antiviral effects of 20 hits: release of infectious HCV-JC1-Luc particles from Huh7.5 cells", "format": "cell-based, Hepatitis C virus", "settings": "10 μM, among the best 20 candidates", "description": "Huh7.5 cells were electroporated with HCV-JC1-Luc (reporter virus expressing luciferase via IRES) RNA and treated 24 h later with the best 20 candidates (10 μM). After another 24 h the supernatants were harvested. To quantify infectious particles, untreated Huh7.5 cells were inoculated with the supernatants and 36 h later the luciferase activity was measured. The viability of the same cells was determined 24 h after treatment with inhibitor by MTT assay (tetrazolium salt which is reduced in metabolically active cells resulting in a color change). For both parameters, 100% corresponds to the release or viability of the untreated or DMSO treated control. uninf.=not infected; untr.=not treated. Mean values and SD were derived from n =3 independent infections.\nHuh7.5 hepatocellular carcinoma cells were electroporated with HCV-JC1-Luc (reporter virus expressing luciferase via IRES) RNA and treated 24 h later with the best 20 candidates (10 μM) identified in Example 1. After another 24 h, the supernatants were harvested. To quantify infectious particles, untreated Huh7.5 cells were inoculated with the supernatants and luciferase activity was measured 36 h later (FIG. 2)."}, "DENV-2": {"test_system": "DENV-2", "experiment": "Antiviral effect on DENV (virus release and entry), Vero cells, MOI 5", "format": "cell-based, Dengue virus", "settings": "co-treatment", "description": "(A) Vero cells were seeded and infected with DENV-2 at a multiplicity of infection (MOI) of 5. For co-treatment cells were incubated with a premixed suspension of drug and virus, for post-treatment with virus only for 2 h. Cells were subsequently washed with PBS and cultivated for co-treatment in DMEM supplemented with 2% FCS, for post-treatment in DMEM supplemented with 2% FCS spiked with the indicated concentrations of C10. The drug containing medium for post-treated cells was removed after 2 h and replenished with fresh DMEM supplemented with 2% FCS. 24 h after infection the supernatants were used for a Plaque assay. (B) RNA extraction; n=3 with SEM. (C, D) Cells were lysed for Western blot analysis using antibodies against viral proteins NS3 and NS5 and tubulin as a loading control.\nFor this purpose, Vero cells were plated and infected with DENV-2 at an infection multiplicity (MOI) of 5. For co-treatment, the cells were incubated with a previously mixed suspension of active substance and virus, for post-treatment with the virus alone, each for 2 h. The cells were then washed with PBS and cultivated for co-treatment in DMEM with 2 % FCS, for post-treatment in DMEM with 2 % FCS mixed with the indicated concentrations of compound C10. For the post-treated cells, the medium containing the active substance was removed after 2 h and replaced by fresh medium with 2 % FCS. […]"}, "ZIKA": {"test_system": "ZIKA", "experiment": "IC50 in established virological assays (Table 1), ZIKA", "format": "cell-based", "settings": "Zika virus"}, "ChikV": {"test_system": "ChikV", "experiment": "IC50 in established virological assays (Table 1), ChikV", "format": "cell-based", "settings": "Chikungunya virus"}, "HBV": {"test_system": "HBV", "experiment": "IC50 in established virological assays (Table 1), HBV", "format": "cell-based, Hepatits B Virus", "description": "In summary, a set of C10 derivatives (FIG. 12) was designed, synthesized and tested against HCV (which is considered as an established system to monitor drug effects against Flaviviridae) as well as DENV for comprehensive structure-activity relationship (SAR) analysis and target validation. IC50 and CC50 values for compound C10 were determined in established virological assays (Table 1). […] Further, said experiments underline the specificity of compound C10 for flaviviruses."}, "KUNV (MRM61C strain)": {"test_system": "KUNV (MRM61C strain)", "experiment": "Plaque assay of released virus, KUNV-infected Vero cells", "format": "cell-based, Kunjin virus", "settings": "West Nile virus", "description": "(§1) Vero cells were infected with KUNV at an MOI of 1 for 2 h (post infection), after which virus was removed, and fresh maintenance medium containing 2% FCS together with the indicated concentration of C10 added. For co-treat condition, Vero cells were infected with KUNV at an MOI of 1 in the presence of C10 for 2 h, followed by removal of the virus/C10 inoculums, and addition of fresh 2% fetal calf serum maintenance medium.\nVero and BHK-21 cells were maintained in DMEM media supplemented with 10% heat-inactivated FBS at 37° C. in a humidified incubator supplemented with 5% CO2; A549 cells were maintained in F-12K medium supplemented with 10% heat-inactivated Fetal Bovine Serum (FBS), 2 mM L-glutamine, 50 U/I penicillin, 0.05 mg/l streptomycin. DENV-1-4 strains, cell culture conditions and Gen-Bank accession numbers, as well as details of RSV strains and culture are known in the art. […] Viral titer was subsequently determined by plaque assay (see below).\nVero cells were seeded into 24-well plates at a density of 2×10^5 cells/well and grown overnight in culture medium at 37° C. with 5% CO2 prior to infection with RSV, KUNV, ZIKV as indicated. BHK-21 cells were used for DENV1-4. […] The stain was removed by rinsing the cells with tap water, and the viral plaques were counted visually. […]"}, "ZIKV": {"test_system": "ZIKV", "experiment": "RT-qPCR analysis of virus genomes, ZIKV", "format": "cell-based", "settings": "Zika virus", "description": "as §1, with “ZIKV” for “KUNV”, “medium. […] Results represent the mean ±SD for duplicate wells from a single assay (cf. Table 2 for pooled data).” for “medium.”\nViral RNA was extracted using Isolate II RNA extraction kit (Bioline), and the absolute number of RNA copies determined by Taqman One Step RT-qPCR (Applied Biosystems) by extrapolation from a standard curve generated from in vitro—transcribed virus RNA.\nIt was decided to test the ability of C10 to inhibit the flaviviruses DENV1-4, KUNV and ZIKV, in addition to the paramyxovirus RSV, as a control."}, "DENV capsid protein": {"target": "T1, DENV capsid protein (Dengue virus type 2, UniProt P29990)", "T1 construct": "recombinant DENV capsid protein; made in house; host or cells: E. coli", "T1 sequence (P29990 1-100)": "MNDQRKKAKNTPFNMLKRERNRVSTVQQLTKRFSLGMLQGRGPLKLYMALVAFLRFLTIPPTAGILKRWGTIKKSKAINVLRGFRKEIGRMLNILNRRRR", "experiment": "Crosslinking of recombinant DENV capsid protein (Western blot)", "format": "biochemical", "excerpt": "DSS was included as a positive control."}, "HCV": {"test_system": "HCV", "experiment": "Antiviral effect on HCV (virus release), Jc1-Luc-IRES in Huh7.5 cells"}}, "note": "Where two headings read alike, the source gives them in different places.", "data": [{"smiles": "CCN1/C(=C\\C=C\\c2sc3cc(NC(C)=O)ccc3[n+]2CC)Sc2cc(NC(C)=O)ccc21.[I-]", "note": "[C10, 6-acetamido-2-((1E,3E)-3-(6-acetamido-3-ethylbenzo[d]thiazol-2(3H)-ylidene)prop-1-en-1-yl)-3-ethylbenzo[d]thiazol-3-ium iodide]", "values": [{"measurement": "antiviral activity (release of infectious particles)", "setting": "HCV-JC1-Luc", "result": "highest antiviral activity"}, {"measurement": "viral proteins in cells (Western blot NS3, NS5)", "setting": "DENV-2; 1 μM, compared to DMSO", "result": "viral proteins are detectable in the cells, albeit at lower amounts"}, {"measurement": "productive infection (Western blot NS3, NS5)", "setting": "DENV-2; 10 μM", "result": "prevents a productive infection of the cells"}, {"measurement": "IC50", "setting": "ZIKA", "result": "100 to 200", "unit": "nM"}, {"measurement": "IC50", "setting": "ChikV", "result": 5.6, "unit": "µM"}, {"measurement": "activity against Hepatits B Virus (HBV)", "setting": "HBV", "result": "inactive or has only minor activity"}, {"measurement": "IC50", "setting": "HBV; Hepatitis B virus, HBV", "result": "> 10", "unit": "µM"}, {"measurement": "EC50", "setting": "KUNV (MRM61C strain); read-out: EC50 from plaque assays, KUNV, c.t.", "result": 50, "unit": "nM"}, {"measurement": "EC50", "setting": "KUNV (MRM61C strain); read-out: EC50 from plaque assays, KUNV, p.i.", "result": 420, "unit": "nM"}, {"measurement": "EC50", "setting": "ZIKV; read-out: EC50 from RT-qPCR analysis, ZIKV, c.t.", "result": 440, "unit": "nM"}, {"measurement": "EC50", "setting": "ZIKV; read-out: EC50 from RT-qPCR analysis, ZIKV, p.i.", "result": "1130 ± 1100", "unit": "nM"}, {"measurement": "effect on oligomerization state of DENV capsid protein", "setting": "DENV capsid protein", "result": "enhance the presence of dimers, tetramers and higher oligomeric states"}, {"measurement": "antiviral effect on release of infectious HCV", "setting": "HCV; 24 h treatment", "result": "antiviral effects even at low concentrations"}, {"measurement": "therapeutic index CC50/EC50", "setting": "HCV; HCV virus release, Huh7.5", "result": "approximately 590"}]}]}
